Converted amounts (≈) assume the structure as drawn.
Assays:
[1] = test system: human lung cancer cell line A549; assay: MTT-based cytotoxicity; type: cell-based; conditions: Homo sapiens, A549; MTT assay
Procedure: The cytotoxic effects of seventeen selected molecules were assessed against the A549 human lung adenocarcinoma cell line using the MTT assay. Cisplatin served as the reference drug for comparison. Lower IC50 values indicate higher cytotoxicity.
The cytotoxic activity (IC50) of selected compounds against A549 (lung adenocarcinoma) MV cell-lines was evaluated by performing cellular conversion of MTT [3-(4,5-dimethylthiazo-2-yl)-2,5-diphenyl-tetrazolium bromide] into a formazan product. This evaluation was conducted up to a concentration of 50 mg/mL using the Promega Cell Titre 96 non-radioactive cell proliferation assay, with cisplatin serving as the positive control. Cytotoxicity is commonly quantified by determining the IC50 value, which represents the quantity of a substance that reduces the optical density of treated cells by 50% compared to untreated cells, as measured by the MTT experiment. The results are presented as IC50 values (mean ± standard error of the mean (SEM) obtained from three separate and independent measurements.

[2] = target: MtDHFR (Mycobacterium tuberculosis, UniProt P9WNX1); assay: biochemical; type: biochemical
Sequence of MtDHFR (P9WNX1 whole entry): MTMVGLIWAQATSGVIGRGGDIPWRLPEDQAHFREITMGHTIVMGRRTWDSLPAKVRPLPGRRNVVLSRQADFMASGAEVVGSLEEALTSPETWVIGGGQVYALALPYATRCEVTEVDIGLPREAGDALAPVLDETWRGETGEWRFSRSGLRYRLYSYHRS

[3] = test system: S. aureus ATCC 29213; assay: Antibacterial activity, broth microdilution (S. aureus); conditions: Staphylococcus aureus, ATCC29213, read-out: S. aureus ATCC 29213 (Gram +ve) MIC
Procedure: (§1) All twenty-eight molecules were evaluated for in vitro antimicrobial activities that were assessed against Gram +ve and Gram -ve strains.
(§2) The antibacterial inhibitory effects of all compounds were assessed using the broth microdilution method, with ciprofloxacin serving as the reference medication.

[4] = test system: M. tuberculosis H37Rv; assay: Antitubercular activity, Microplate Alamar Blue test (MABA); type: cell-based, Mycobacterium tuberculosis; conditions: n = 3; for MIC: Mycobacterium tuberculosis, H37RV
[5] = test system: E. coli ATCC 25922; assay: Antibacterial activity, broth microdilution (E. coli); conditions: for MIC: Escherichia coli, ATCC25922, read-out: E. coli ATCC 25922 (Gram –ve) MIC, broth microdilution
Procedure: as §1, §2

[6] = target: InhA enzyme from M. tuberculosis (Mycobacterium tuberculosis, UniProt P9WGR1); assay: InhA inhibition assay; type: biochemical; conditions: read-out: % InhA Inhibition at 50 µM
Sequence of InhA enzyme from M. tuberculosis (P9WGR1 whole entry, looked up): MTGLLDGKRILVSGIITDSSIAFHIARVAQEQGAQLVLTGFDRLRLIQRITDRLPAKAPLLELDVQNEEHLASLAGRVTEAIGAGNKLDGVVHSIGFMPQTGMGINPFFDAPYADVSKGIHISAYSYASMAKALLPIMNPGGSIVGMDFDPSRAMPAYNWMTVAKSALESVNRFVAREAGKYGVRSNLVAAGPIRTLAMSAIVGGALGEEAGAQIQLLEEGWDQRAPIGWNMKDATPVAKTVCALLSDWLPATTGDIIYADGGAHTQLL

Row | Structure (SMILES) | IC50 [1] | IC50 [2] | MIC [3] | MIC [4] | MIC [5] | inhibition at 50 µM [6] | MtDHFR inhibition, in words, compared with trimethoprim [2] | M. tuberculosis H37Rv MIC values [4] | E. coli ATCC 25922 (Gram –ve) MIC ([5]; broth microdilution)
1 | O=C(COC(=O)c1ccc(-n2cccc2)cc1)NN=Cc1ccccc1 [Compound 6a, 2-(2-benzylidenehydrazinyl)-2-oxoethyl 4-(1H-pyrrol-1-yl)benzoate] | 244 ± 0.8 µg/mL (≈ 702 µM) | 132 µM | 12.5 µg/mL (≈ 36 µM) | 1.6 µg/mL (≈ 4.61 µM) | 1.6 µg/mL (≈ 4.61 µM) | 13% |  |  | 
2 | CC(=NNC(=O)COC(=O)c1ccc(-n2cccc2)cc1)c1ccccc1 [Compound 5a, 2-oxo-2-(2-(1-phenylethylidene)hydrazinyl)ethyl 4-(1H-pyrrol-1-yl)benzoate] | 225 ± 0.3 µg/mL (≈ 623 µM) | 95 µM | 12.5 µg/mL (≈ 34.6 µM) | 1.6 µg/mL (≈ 4.43 µM) | 1.6 µg/mL (≈ 4.43 µM) | 26% |  |  | 
3 | O=C(OCC(=O)n1[nH]c(=O)c2ccccc2c1=O)c1ccc(-n2cccc2)cc1 [Compound 4a, 2-(1,4-dioxo-3,4-dihydrophthalazin-2(1H)-yl)-2-oxoethyl 4-(1H-pyrrol-1-yl)benzoate] | 315 ± 0.3 µg/mL (≈ 809 µM) | 23 µM | 12.5 µg/mL (≈ 32.1 µM) | 1.6 µg/mL (≈ 4.11 µM) | 3.12 µg/mL (≈ 8.01 µM) | 43% | greater inhibition characteristics than trimethoprim |  | 
4 | O=C(OCC(=O)n1[nH]c(=O)c2c(Cl)c(Cl)c(Cl)c(Cl)c2c1=O)c1ccc(-n2cccc2)cc1 [Compound 4b, 2-oxo-2-(5,6,7,8-tetrachloro-1,4-dioxo-3,4-dihydrophthalazin-2(1H)-yl)ethyl 4-(1H-pyrrol-1-yl)benzoate] | 319 ± 0.4 µg/mL (≈ 605 µM) | 25 µM | 6.25 µg/mL (≈ 11.9 µM) | 1.6 µg/mL (≈ 3.04 µM) | 0.8 µg/mL (≈ 1.52 µM) | 29% | greater inhibition characteristics than trimethoprim |  | 
5 | CC(=NNC(=O)COC(=O)c1ccc(-n2cccc2)cc1)c1ccc(F)cc1 [Compound 5l, 2-(2-(1-(4-fluorophenyl)ethylidene)hydrazinyl)-2-oxoethyl 4-(1H-pyrrol-1-yl)benzoate] | 241 ± 0.6 µg/mL (≈ 635 µM) | 65 µM | 12.5 µg/mL (≈ 32.9 µM) | 1.6 µg/mL (≈ 4.22 µM) | 3.12 µg/mL (≈ 8.22 µM) | 46% | moderate inhibition |  | 
6 | CC(=NNC(=O)COC(=O)c1ccc(-n2cccc2)cc1)c1ccc(O)cc1 [Compound 5j, 2-(2-(1-(4-hydroxyphenyl)ethylidene)hydrazinyl)-2-oxoethyl 4-(1H-pyrrol-1-yl)benzoate] | 255 ± 0.3 µg/mL (≈ 676 µM) | 70 µM | 12.5 µg/mL (≈ 33.1 µM) | 1.6 µg/mL (≈ 4.24 µM) | 3.12 µg/mL (≈ 8.27 µM) | 32% | moderate inhibition |  | 
7 | C/C(=N\NC(=O)COC(=O)c1ccc(-n2cccc2)cc1)c1ccc(Br)cc1 [Compound 5b, 2-(2-(1-(4-bromophenyl)ethylidene) hydrazineyl)-2-oxoethyl-4-(1H-pyrrol-1-yl) benzoate] | 266 ± 0.3 µg/mL (≈ 604 µM) | 23 µM | 1.6 µg/mL (≈ 3.63 µM) | 0.8 µg/mL (≈ 1.82 µM) | 0.4 to 0.8 µg/mL (≈ 0.908 to 1.82 µM) | 22% | greater inhibition characteristics than trimethoprim | 0.8 µg/mL | 0.4 µg/mL

From paper PMC12088000, “Design, synthesis and in silico molecular modelling studies of 2-Hydrazineyl-2-oxoethyl-4-(1H-pyrrol-1-yb) benzoate derivatives: a potent dual DHFR and ENR-reductase inhibitors with antitubercular, antibacterial and cytotoxic potential” (PLOS One, 2025)
